Results: patent US10000791B2, “Measurement method for human pancreatic lipase activity” (ASAHI KASEI PHARMA CORPORATION, priority 2013, dated 2018)
Values belong to the molecule of their own block, whether it stands above or below them.

Legend:
human pancreatic lipase = assay: pH dependence of human pancreatic lipase activity in the presence of bile acids (diglyceride substrate, UV method); format: biochemical; details: pH 7.2
non-pancreatic lipase = assay: quantitative evaluation of influence of non-pancreatic lipase (measured value versus theoretical or reference value in heparin-administered samples); format: biochemical, human
Excerpt: Next, the influence of the non-pancreatic lipase activity was obtained as follows on the assumption that the Liquitech reagent is not influenced by the non-pancreatic lipase. First, with respect to measured values of the enzyme activity obtained in samples other than the heparin-administered samples, a regression equation (an independent variable X: enzyme activity attained by Liquitech, a dependent variable Y: enzyme activity attained by the comparative example or the present example) was obtained. Next, with respect to each heparin-administered sample, the variable Y was calculated as a theoretical value by substituting the measured value of the enzyme activity obtained by the Liquitech for the variable X of the regression equation. Thereafter, with respect to each heparin-administered sample, the actually measured value of the enzyme activity obtained by the comparative example or the present example was divided by the theoretical value of the variable Y to calculate a relative percentage (%). It is noted that the acceptable range of the influence was provisionally set as within ±20% in reference to the package insert of “Liquitech Lipase Color II” describing that the accuracy is within ±15% of known activity.
In the present example, NaGDCA was selected as the conjugated bile acid and was combined with a non-conjugated bile acid, NaDCA, (mixed in equal amounts) to examine the behavior of a heparin-administered sample with the pH of a reaction solution changed to 7.1, 7.4 and 7.6. As the buffer solution, the BES buffer was used. As samples, (four) control samples (controls each containing a pancreatic lipase), (ten) normal samples and (nine) heparin-administered samples were used. As a comparative example, NaDCA (in a concentration of 30 mmol/L in the R-1) and NaTDCA (in a concentration of 10 mmol/L in the R-1) were used as the bile acid, and the reaction solution was adjusted to pH 7.95 (the Bicine buffer). Besides, “Liquitech Lipase Color II” manufactured by Roche Diagnostics was used for verifying the effect of the present example. “Liquitech Lipase Color II” was used in accordance with the package insert, and a special calibrator was used for calculating the enzyme activity. Thereafter, in the same manner as in Example 7, with respect to each heparin-administered sample, the actually measured value of the enzyme activity obtained by the comparative example or the present example was divided by the theoretical value to calculate a relative percentage (%). The influence of the non-pancreatic lipase activity and the acceptable range of the influence were the same as those in Example 7.
As a comparative example, NaDCA and NaTDCA (respectively in concentrations of 30 mmol/L and 10 mmol/L in the R-1) were used as the bile acids, and the reaction solution was adjusted to pH 7.95 by using the Bicine buffer to measure a heparin-administered sample. […] The bile acids were used in a total concentration in the R-1 of 40 mmol/L (each in 20 mmol/L in using two of them, and each in 13.3 mmol/L in using three of them). Besides, “Liquitech Lipase Color II” manufactured by Roche Diagnostics was used for verifying the effect of the present example. “Liquitech Lipase Color II” was used in accordance with the package insert, and a special calibrator was used for calculating the enzyme activity. In each of the comparative example and the present example, the lipase activity was calculated by using a molecular extinction coefficient of 6300 L/mol·cm of the reduced NADP. Thereafter, in the same manner as in Example 7, with respect to each heparin-administered sample, the actually measured value of the enzyme activity obtained by the comparative example or the present example was divided by the theoretical value to calculate a relative percentage (%). The influence of the non-pancreatic lipase activity and the acceptable range of the influence were calculated in the same manner as in Example 7.

- proportion of the bile acid to the substrate for attaining the maximum lipase activity (human pancreatic lipase; substrate concentration 1.40 mmol/L): about 17
- proportion of the bile acid to the substrate for attaining the maximum lipase activity (human pancreatic lipase; substrate concentration 1.63 mmol/L): about 15
- actually measured value/theoretical value (Table 4) (non-pancreatic lipase; Average of Heparin 21-25, pH 6.2): 104.1%
- actually measured value/theoretical value (Table 4) (non-pancreatic lipase; Average of Heparin 21-25, pH 6.4): 102.7%
- actually measured value/theoretical value (Table 4) (non-pancreatic lipase; Average of Heparin 21-25, pH 6.6): 97.8%
- actually measured value/theoretical value (Table 4) (non-pancreatic lipase; Average of Heparin 21-25, pH 6.9): 94.9%
- actually measured value/theoretical value (Table 4) (non-pancreatic lipase; Average of Heparin 21-25, pH 7.2): 100.9%
- actually measured value/theoretical value (Table 4) (non-pancreatic lipase; Average of Heparin 21-25, pH 7.4): 119.2%
- actually measured value/theoretical value (Table 4) (non-pancreatic lipase; Average of Heparin 21-25, pH 7.6): 212.1%
- actually measured values relative to theoretical values, average (non-pancreatic lipase; heparin-administered samples, pH 7.4 or lower): smaller than 120.0%
- actually measured value/theoretical value (Table 4) (non-pancreatic lipase; sample Heparin 21, pH 6.2): 118.4%
- actually measured value/theoretical value (Table 4) (non-pancreatic lipase; sample Heparin 21, pH 6.4): 110.6%
- actually measured value/theoretical value (Table 4) (non-pancreatic lipase; sample Heparin 21, pH 6.6): 109.4%
- actually measured value/theoretical value (Table 4) (non-pancreatic lipase; sample Heparin 21, pH 6.9): 99.9%
- actually measured value/theoretical value (Table 4) (non-pancreatic lipase; sample Heparin 21, pH 7.2): 99.1%
- actually measured value/theoretical value (Table 4) (non-pancreatic lipase; sample Heparin 21, pH 7.4): 118.3%
- actually measured value/theoretical value (Table 4) (non-pancreatic lipase; sample Heparin 21, pH 7.6): 167.2%
- actually measured value/theoretical value (Table 4) (non-pancreatic lipase; sample Heparin 22, pH 6.2): 100.6%
- actually measured value/theoretical value (Table 4) (non-pancreatic lipase; sample Heparin 22, pH 6.4): 100.8%
- actually measured value/theoretical value (Table 4) (non-pancreatic lipase; sample Heparin 22, pH 6.6): 93.6%
- actually measured value/theoretical value (Table 4) (non-pancreatic lipase; sample Heparin 22, pH 6.9): 86.0%
- actually measured value/theoretical value (Table 4) (non-pancreatic lipase; sample Heparin 22, pH 7.2): 98.5%
- actually measured value/theoretical value (Table 4) (non-pancreatic lipase; sample Heparin 22, pH 7.4): 107.8%
- actually measured value/theoretical value (Table 4) (non-pancreatic lipase; sample Heparin 22, pH 7.6): 162.0%
- actually measured value/theoretical value (Table 4) (non-pancreatic lipase; sample Heparin 23, pH 6.2): 112.9%
- actually measured value/theoretical value (Table 4) (non-pancreatic lipase; sample Heparin 23, pH 6.4): 115.8%
- actually measured value/theoretical value (Table 4) (non-pancreatic lipase; sample Heparin 23, pH 6.6): 111.4%
- actually measured value/theoretical value (Table 4) (non-pancreatic lipase; sample Heparin 23, pH 6.9): 114.9%
- actually measured value/theoretical value (Table 4) (non-pancreatic lipase; sample Heparin 23, pH 7.2): 110.5%
- actually measured value/theoretical value (Table 4) (non-pancreatic lipase; sample Heparin 23, pH 7.4): 129.2%
- actually measured value/theoretical value (Table 4) (non-pancreatic lipase; sample Heparin 23, pH 7.6): 281.9%
- actually measured value/theoretical value (Table 4) (non-pancreatic lipase; sample Heparin 24, pH 6.2): 95.4%
- actually measured value/theoretical value (Table 4) (non-pancreatic lipase; sample Heparin 24, pH 6.4): 91.7%
- actually measured value/theoretical value (Table 4) (non-pancreatic lipase; sample Heparin 24, pH 6.6): 83.0%
- actually measured value/theoretical value (Table 4) (non-pancreatic lipase; sample Heparin 24, pH 6.9): 84.4%
- actually measured value/theoretical value (Table 4) (non-pancreatic lipase; sample Heparin 24, pH 7.2): 96.0%
- actually measured value/theoretical value (Table 4) (non-pancreatic lipase; sample Heparin 24, pH 7.4): 113.2%
- actually measured value/theoretical value (Table 4) (non-pancreatic lipase; sample Heparin 24, pH 7.6): 215.2%
- actually measured value/theoretical value (Table 4) (non-pancreatic lipase; sample Heparin 25, pH 6.2): 93.1%
- actually measured value/theoretical value (Table 4) (non-pancreatic lipase; sample Heparin 25, pH 6.4): 94.7%
- actually measured value/theoretical value (Table 4) (non-pancreatic lipase; sample Heparin 25, pH 6.6): 91.7%
- actually measured value/theoretical value (Table 4) (non-pancreatic lipase; sample Heparin 25, pH 6.9): 89.5%
- actually measured value/theoretical value (Table 4) (non-pancreatic lipase; sample Heparin 25, pH 7.2): 100.2%
- actually measured value/theoretical value (Table 4) (non-pancreatic lipase; sample Heparin 25, pH 7.4): 127.4%
- actually measured value/theoretical value (Table 4) (non-pancreatic lipase; sample Heparin 25, pH 7.6): 234.4%
Compound: C[C@H](CCC(=O)NCCS(=O)(=O)[O-])[C@H]1CC[C@H]2[C@@H]3CC[C@@H]4C[C@H](O)CC[C@]4(C)[C@H]3C[C@H](O)[C@]12C.[Na+] [NaTDCA, sodium taurodeoxycholate]

Compound: C[C@H](CCC(=O)NCC(=O)[O-])[C@H]1CC[C@H]2[C@@H]3[C@H](O)C[C@@H]4C[C@H](O)CC[C@]4(C)[C@H]3CC[C@]12C.[Na+] [NaGCDCA, sodium glycochenodeoxycholate]
- Measured value/theoretical value (Table 5) (non-pancreatic lipase; sample Heparin 31, pH 7.0): 98.4%
- Measured value/theoretical value (Table 5) (non-pancreatic lipase; sample Heparin 31, pH 7.95): 311.8%
- Measured value/theoretical value (Table 5) (non-pancreatic lipase; sample Heparin 32, pH 7.0): 98.5%
- Measured value/theoretical value (Table 5) (non-pancreatic lipase; sample Heparin 32, pH 7.95): 492.8%
- Measured value/theoretical value (Table 5) (non-pancreatic lipase; sample PRECINORM, pH 7.0): 99.3%
- Measured value/theoretical value (Table 5) (non-pancreatic lipase; sample PRECINORM, pH 7.95): 107.6%
- Measured value/theoretical value (Table 5) (non-pancreatic lipase; sample PRECIPATH, pH 7.0): 100.9%
- Measured value/theoretical value (Table 5) (non-pancreatic lipase; sample PRECIPATH, pH 7.95): 111.6%
- Measured value/theoretical value (Table 5) (non-pancreatic lipase; sample Pool 1, pH 7.0): 101.8%
- Measured value/theoretical value (Table 5) (non-pancreatic lipase; sample Pool 1, pH 7.95): 99.4%
- Measured value/theoretical value (Table 5) (non-pancreatic lipase; sample Pool 2, pH 7.0): 89.8%
- Measured value/theoretical value (Table 5) (non-pancreatic lipase; sample Pool 2, pH 7.95): 126.2%
- Measured value/theoretical value (Table 5) (non-pancreatic lipase; sample Seraclear LP, pH 7.0): 87.0%
- Measured value/theoretical value (Table 5) (non-pancreatic lipase; sample Seraclear LP, pH 7.95): 60.4%
